PubChem BioAssay (NCI)
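In this assay, cells in 96-well plates receive the compound at five concentrations for 48 hours. Endpoints are linearly interpolated between the surrounding concentrations. At the TGI there is no net growth.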

What was measured:
Assay in all cases: NCI-60 cell line screen, 48 h
[1] = system: BT-549 breast
[2] = system: DU-145 prostate
[3] = system: HT29 colon
[4] = system: K-562 leukemia
[5] = system: KM12 colon
[6] = system: MALME-3M melanoma
[7] = system: OVCAR-3 ovarian
[8] = system: OVCAR-8 ovarian
[9] = system: RPMI-8226 leukemia
[10] = system: RXF 393 renal
[11] = system: SF-268 CNS
[12] = system: SF-295 CNS
[13] = system: SF-539 CNS
[14] = system: SK-MEL-28 melanoma
[15] = system: SN12C renal
[16] = system: SNB-19 CNS
[17] = system: SW-620 colon
[18] = system: T-47D breast
[19] = system: U251 CNS
[20] = system: UACC-257 melanoma

`CC[C@@]1(O)C(=O)OCc2c1cc1n(c2=O)Cc2c-1nc1ccccc1c2/C=N\NC(=O)C(N)CO` (stereo not given in full) gave a TGI [1] greater than 100 µM, a TGI [2] greater than 100 µM and a TGI [3] greater than 90.4 µM. The TGI [4] was greater than 100 µM, the TGI [5] was greater than 44 µM and the TGI [6] was greater than 100 µM. The TGI [7] was greater than 100 µM, the TGI [8] was 39.6 µM and the TGI [9] was greater than 73.2 µM. For the same molecule, the TGI [10] was 7.73 µM, the TGI [11] was 7.36 µM and the TGI [12] was greater than 100 µM. For the same molecule, the TGI [13] was 0.763 µM, the TGI [14] was greater than 100 µM and the TGI [15] was 25.3 µM. It also gave a TGI [16] greater than 100 µM, a TGI [17] greater than 100 µM and a TGI [18] greater than 100 µM. It also gave a TGI [19] greater than 20.9 µM and a TGI [20] greater than 65.8 µM.
`CC(=O)OC/C=C/[C@H](O[Si](C)(C)C(C)(C)C)[C@@H](O)/C=C/COC(C)=O` gave a TGI [1] greater than 100 µM, a TGI [2] greater than 100 µM and a TGI [3] greater than 100 µM. It also gave a TGI [4] of 52.8 µM, a TGI [5] greater than 100 µM and a TGI [6] greater than 100 µM. It also gave a TGI [7] greater than 100 µM, a TGI [8] greater than 100 µM and a TGI [9] of 43.7 µM. It also gave a TGI [10] greater than 100 µM, a TGI [11] greater than 100 µM and a TGI [12] greater than 100 µM. For the same molecule, the TGI [13] was greater than 100 µM, the TGI [14] was greater than 100 µM and the TGI [15] was greater than 100 µM. For the same molecule, the TGI [16] was greater than 100 µM, the TGI [17] was greater than 100 µM and the TGI [18] was greater than 100 µM. For the same molecule, the TGI [19] was greater than 100 µM and the TGI [20] was greater than 100 µM.
Molecule `Cc1ccc2nc3c(=O)[nH]c(=O)nc-3n(C)c2c1C` has a TGI [1] greater than 100 µM, a TGI [2] greater than 100 µM and a TGI [3] greater than 100 µM. The TGI [4] was greater than 100 µM, the TGI [5] was greater than 100 µM and the TGI [6] was greater than 100 µM. It also gave a TGI [7] greater than 100 µM, a TGI [8] greater than 100 µM and a TGI [9] greater than 100 µM. The TGI [10] was greater than 100 µM, the TGI [11] was greater than 100 µM and the TGI [12] was greater than 100 µM. The TGI [13] was greater than 100 µM, the TGI [14] was greater than 100 µM and the TGI [15] was greater than 100 µM. The TGI [16] was greater than 100 µM, the TGI [17] was greater than 100 µM and the TGI [18] was greater than 100 µM. The TGI [19] was greater than 100 µM and the TGI [20] was greater than 100 µM.
In the case of `CC(=O)C1(Cc2cccc3ccccc23)S(=O)(=O)OCCOS1(=O)=O`, the TGI [1] is reported as 30.6 µM, the TGI [2] is reported as 42.2 µM and the TGI [3] is reported as 37.4 µM. For the same molecule, the TGI [4] was greater than 100 µM, the TGI [5] was 28.8 µM and the TGI [6] was 33 µM. For the same molecule, the TGI [7] was 36.4 µM, the TGI [8] was 55.3 µM and the TGI [9] was 47.2 µM. It also gave a TGI [10] of 26.7 µM, a TGI [11] of 50.2 µM and a TGI [12] of 20.5 µM. It also gave a TGI [13] of 37.8 µM, a TGI [14] of 41.2 µM and a TGI [15] of 25 µM. For the same molecule, the TGI [16] was 49.2 µM, the TGI [17] was 39.2 µM and the TGI [18] was 43.3 µM. For the same molecule, the TGI [19] was 31.1 µM and the TGI [20] was 16.6 µM.
Work on `Fc1ccc(C(OCCN2CCN(CCCCl)CC2)c2ccc(F)cc2)cc1` yielded a TGI [1] of 83.6 µM, a TGI [2] of 73.7 µM and a TGI [3] of 40 µM. It also gave a TGI [4] of 60.7 µM, a TGI [5] of 38 µM and a TGI [6] of 31.8 µM. The TGI [7] was 74.9 µM, the TGI [8] was 91 µM and the TGI [9] was 49.5 µM. It also gave a TGI [10] of 44.4 µM, a TGI [11] of 77.5 µM and a TGI [12] of 58.1 µM. The TGI [13] was 34.6 µM, the TGI [14] was greater than 100 µM and the TGI [15] was 69.4 µM. It also gave a TGI [16] greater than 100 µM, a TGI [17] greater than 100 µM and a TGI [18] of 52.5 µM. It also gave a TGI [19] greater than 100 µM and a TGI [20] of 47.5 µM.
For `C[C@]12CC[C@@H]3c4ccc(O)cc4CC[C@H]3[C@@H]1CC[C@@H]2OP(=O)(O)O`, the TGI [1] was greater than 100 µM, the TGI [2] was greater than 100 µM and the TGI [3] was greater than 100 µM. It also gave a TGI [4] greater than 100 µM, a TGI [5] greater than 100 µM and a TGI [6] greater than 100 µM. The TGI [7] was greater than 100 µM, the TGI [8] was greater than 100 µM and the TGI [9] was greater than 100 µM. It also gave a TGI [10] greater than 100 µM, a TGI [11] greater than 100 µM and a TGI [12] greater than 100 µM. The TGI [13] was greater than 100 µM, the TGI [14] was greater than 100 µM and the TGI [15] was greater than 100 µM. For the same molecule, the TGI [16] was greater than 100 µM, the TGI [17] was greater than 100 µM and the TGI [18] was greater than 100 µM. It also gave a TGI [19] greater than 100 µM and a TGI [20] greater than 100 µM.
